One assay concerns the target T1, ENZ2 SEQ ID NO:2 (Flavobacterium johnsoniae, UniProt A5FF23).
T1 construct: His6 (hexahistidine, inserted after the initial methionine) (N); made in house; host or cells: E. coli BL21(DE3) plysE
T1 sequence (A5FF23 1-370): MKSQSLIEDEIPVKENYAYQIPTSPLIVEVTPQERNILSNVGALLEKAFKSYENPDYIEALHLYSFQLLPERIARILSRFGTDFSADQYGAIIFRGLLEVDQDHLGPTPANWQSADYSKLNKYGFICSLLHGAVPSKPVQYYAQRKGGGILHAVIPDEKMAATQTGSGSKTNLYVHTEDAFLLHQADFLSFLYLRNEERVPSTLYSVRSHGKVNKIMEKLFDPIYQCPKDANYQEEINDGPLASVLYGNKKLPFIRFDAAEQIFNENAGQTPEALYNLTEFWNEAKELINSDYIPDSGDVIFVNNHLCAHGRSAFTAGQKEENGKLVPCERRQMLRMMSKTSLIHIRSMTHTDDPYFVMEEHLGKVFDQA
It is filed as biochemical. Conditions: enzyme 0.08 mg/mL, molar ratio α-ketoglutarate/substrate 15/10, Hepes buffer 50 mM pH 7,5, Mohr's salt 1mM, without sodium ascorbate, room temperature, three hours. The method, then:
(§1) Enzymatic reaction medium (0.2 µmole, leq.), borate buffer 0,2M pH 7.7 (80 µL) and Fmoc-Cl solution7.5 mM in acetone (100 µL, 0.75 µmole, 3.75 eq) were hand shaked in a closed 1.50 mL eppendorf for one minute. The aqueous layer was extracted with petroleum ether (3*1 mL) to eliminate excess of Fmoc-Cl. 70 µL of the aqueous phase were withdrawn, diluted with 70 µL of acetonitrile and injected into the HPLC. For substrates with two amine functions, 100 µL of Fmoc-Cl solution 15 mM were used.
(§2) Conditions for HPLC analysis: Atlantis® T3 (3 µm 4.5*150 mm) at 35°C with the gradient 50-86% eluent B (MeCN + 0.1% TFA) and eluent A (H2O + 0.1% TFA) in 20 min at 1 mL/min.
(§3) Enzymes (0.08 mg/mL) were screened against substrates (molar ratio α-ketoglutarate/substrate 15/10) in Hepes buffer 50 mM pH 7,5, with Mohr's salt at 1mM and without sodium ascorbate, at room temperature for three hours. The potential conversions of the substrates were determined by HPLC after Fmoc-Cl derivatization as section III here above.

In assay [1] the target is T2, ENZ3 SEQ ID NO:3 (Chitinophaga pinensis, UniProt C7PLM6).
T2 construct: His6 (hexahistidine, inserted after the initial methionine) (N); made in house; host or cells: E. coli BL21(DE3) plysE
T2 sequence (C7PLM6 1-382): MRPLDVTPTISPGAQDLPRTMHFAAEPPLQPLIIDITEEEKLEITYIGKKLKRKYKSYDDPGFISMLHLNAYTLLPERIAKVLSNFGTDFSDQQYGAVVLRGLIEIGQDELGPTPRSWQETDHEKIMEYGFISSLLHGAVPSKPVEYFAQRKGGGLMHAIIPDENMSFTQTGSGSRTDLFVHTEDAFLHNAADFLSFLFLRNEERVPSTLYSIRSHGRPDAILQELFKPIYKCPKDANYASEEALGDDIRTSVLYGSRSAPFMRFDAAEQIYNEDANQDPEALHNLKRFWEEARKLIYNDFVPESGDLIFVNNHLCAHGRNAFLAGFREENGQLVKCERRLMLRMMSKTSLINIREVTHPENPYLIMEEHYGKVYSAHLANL
The assay is classed as biochemical. As to conditions: enzyme 0.08 mg/mL, molar ratio α-ketoglutarate/substrate 15/10, Hepes buffer 50 mM pH 7,5, Mohr's salt 1mM, without sodium ascorbate, room temperature, three hours. The method, then: as §1, §2, §3

The next assay addresses T3, ENZ2 (SEQ ID NO:2) (Flavobacterium johnsoniae, UniProt A5FF23).
T3 construct: His6 (hexahistidine, inserted after the initial methionine) (N); made in house; host or cells: E. coli BL21(DE3) plysE
Briefly: Enzymatic hydroxylation of L-lysine, 10 mL scale, conversion by HPLC (protocol A). The assay is classed as biochemical. As to conditions: with ENZ2 0.086 mg/mL; otherwise as ENZ1 protocol (L-lysine 10 mM, room temperature, 18h). As for the experimental part: as §1, §2
(§4) Enzymatic reaction was carried out in 250 mL glass erlenmeyer flask for a total volume of 4*10 mL. […] The conversion of L-lysine into 3-hydroxy-L-lysine (94%) was determined by HPLC after derivatization with Fmoc-Cl according to protocol A.
(§5) The protocol used was the same as that described above for the hydroxylation by ENZ1 except that the enzyme concentrations used were different (ENZ2: 0.086 mg/mL; ENZ3: 0.031 mg/mL). Conversions were determined by HPLC after derivatization with Fmoc-Cl according to protocol A as described above. […]

The target of assay [2] is T2, ENZ3 SEQ ID NO:3. The assay is described as above. It is filed as biochemical. Conditions: printed 'with ENZ1'; protocol lists ENZ3 0.031 mg/mL; otherwise as ENZ1 protocol (L-lysine 10 mM, room temperature, 18h). The method, then:
as §1, §2, §4, §5

Assay [3] relates to ENZ1 (SEQ ID NO:1) and ENZ2 (SEQ ID NO:2). Briefly: Cascade dihydroxylation of L-lysine, conversion by HPLC (protocol A). The assay is classed as biochemical, Catenulispora acidiphila; Flavobacterium johnsoniae. Conditions: ENZ1 0.13 mg/mL 3h, then ENZ2 added, 18 h, room temperature. The method, then:
as §1, §2
Enzymatic reaction was carried out in 250 mL glass erlenmeyer flask for a total volume of 4*10 mL. Water (5.6 mL), Hepes buffer 1M pH 7.50 (0.5 mL, 50 mM), L-lysine […] (1 mL, 10 mM), α-ketoglutarate 150 mM (1 mL, 15 mM), sodium ascorbate 100 mM (0.25 mL, 2,5 mM), ammonium Iron(II) sulfate hexahydrate 10 mM (1 mL, 1 mM) were poured into the erlenmeyer. The reaction was started by ENZ1 addition (1.99 mg/mL, 0.65 mL, final concentration 0.13 mg/mL). […] The conversion (90%) was determined by HPLC after derivatization with Fmoc-Cl according to protocol A. The assembled reaction mixtures were acidified with 200 µL of TFA then centrifuged. […]

In the case of `NCCCC[C@H](N)C(=O)O` [L-lysine], the “potential conversions of the substrates, ENZ2 SEQ ID NO:2” value at ENZ2 SEQ ID NO:2 was “positive”. Further, on ENZ3 SEQ ID NO:3 [1], the “potential conversions of the substrates, ENZ3 SEQ ID NO:3” value is listed as “positive”. Besides, the “conversion of L-lysine into (4R)-hydroxy-L-lysine” value on ENZ2 (SEQ ID NO:2) is 91%; on ENZ3 SEQ ID NO:3 [2], 96%. Besides, in assay [3], the “conversion (L-lysine dihydroxylation to 3,4-di-hydroxy-L-lysine)” value was 90%.

These data come from EP2876156A1 (COMMISSARIAT A L'ENERGIE ATOMIQUE ET AUX ENERGIES …, priority 2013, dated 2015).
